Experimental data taken from patent US8551921B2, “Method for determining the toxicity of an environmental or chemical sample” (priority 2000, dated 2013).
Several values for one entry are separate records, joined by “and”; a condition that tells them apart may be missing. Identical values can stand only once. Counter-ions that a name gives are not always drawn.

Columns and labels:
[1] = tested on: JG3 (strain of marine origin); assay: MARA indicator device toxic fingerprint, microorganism no. 3; conditions: Microbial Toxic Concentration; incubation time 16 h
Experimental: (§1) • dispense 150 μl of growth medium with indicator in each well • add a concentration gradient of the chemical to be tested to rows B-H in a MARA plate (i.e. an indicator device according to the present invention) • incubate for 16 h • read absorbance values; and • analyse with software.
(§2) Microbial responses to different chemicals was estimated by kinetic measurements of their growth using the Labsystem automated IEMS reader. A computer software that could monitor incubation temperatures, reading intervals, and automatically transfer OD data to a computer was developed. A growth medium containing 0.05% peptone, 0.011% bromothymol blue (BTB), 1% sodium chloride and 0.3% glucose was added to all wells. The glucose acts as a carbon source, and during growth the microorganism will break down the glucose and produce acids, that will turn the initially blue indicator to yellow. Each microplate contains 12 columns and 8 rows, and thus in each plate, 11 lyophilized microbial strains were used (one for each column, the 12th column was used as negative control). […] In order to avoid drying out of the plates during the incubation, one drop of sterile mineral oil was added to each well. The plate was then incubated in the IEMS spectrophotometer and the absorbance value from each well was measured every second hour during 48 h.
(§3) The overall toxicity of the chemical compound can be described either as the mean of all 11 MTC values (shown in column 12), or as the minimum value for all 11 microbial strains used in the assay (marked with bold in the table).

Daphnia = conditions: IC50-values, established assay; cited from earlier work
E. coli = conditions: IC50-values, established assay; cited from earlier work
E. coli MZ 480 = assay: MARA indicator device toxic fingerprint, microorganism no. 8; conditions: Microbial Toxic Concentration; incubation time 16 h
Experimental: as §1, §2, §3

[2] = tested on: β-proteobacterium A22 (Kalmar 200); assay: MARA indicator device toxic fingerprint, microorganism no. 5; conditions: Microbial Toxic Concentration; incubation time 16 h
Experimental: as §1, §2, §3

[3] = tested on: 11 different microbial strains; conditions: for Inhibitory concentrations by method: MARA MTCmin: MTC value of the strain showing the highest sensitivity; for Inhibitory concentrations by method: MARA MTCmean: mean MTC for the 11 microbial strains; for Toxic fingerprint: MTC value, Mean: mean of all 11 MTC values
Experimental: as §1, §2, §3
Concentrations are given in mg/ml.

microorganism no. 7 = assay: MARA indicator device toxic fingerprint, microorganism no. 7; conditions: Microbial Toxic Concentration; incubation time 16 h
Experimental: as §1, §2, §3

[4] = tested on: Photobacterium phosphoreum; conditions: IC50-values, established assay; cited from earlier work
[5] = tested on: Staphylococcus epidermidis (Karin12); assay: MARA indicator device toxic fingerprint, microorganism no. 11; conditions: Microbial Toxic Concentration; incubation time 16 h
Experimental: as §1, §2, §3

[6] = tested on: JG2 (strain of marine origin); conditions: Microbial Toxic Concentration; incubation time 16 h
Experimental: as §1, §2, §3

[7] = tested on: JG1 (strain of marine origin); conditions: Microbial Toxic Concentration; incubation time 16 h
Experimental: as §1, §2, §3

ObanF = conditions: Microbial Toxic Concentration; incubation time 16 h
Experimental: as §1, §2, §3

[8] = tested on: Saccaromyces ceriviciae (bakers yeast); conditions: Microbial Toxic Concentration; incubation time 16 h
Experimental: as §1, §2, §3

[9] = tested on: Aeromonas hydriphila HG3 (RV 5.1); conditions: Microbial Toxic Concentration; incubation time 16 h
Experimental: as §1, §2, §3

[10] = tested on: JG4 (strain of marine origin); conditions: Microbial Toxic Concentration; incubation time 16 h
Experimental: as §1, §2, §3

Compound | Toxic fingerprint: MTC value for microorganism no. 3 [1] | Inhibitory concentrations by method: Daphnia (Daphnia) [mg/mL] | Inhibitory concentrations by method: E. coli (E. coli) [mg/mL] | Toxic fingerprint: MTC value for microorganism no. 8 (E. coli MZ 480) | Toxic fingerprint: MTC value for microorganism no. 5 [2] | Inhibitory concentrations by method: MARA MTCmin [3] [mg/mL] | Inhibitory concentrations by method: MARA MTCmean [3] [mg/mL] | Toxic fingerprint: MTC value, Mean [3] | Toxic fingerprint: MTC value for microorganism no. 7 (microorganism no. 7) | Inhibitory concentrations by method: Microtox [4] [mg/mL] | Toxic fingerprint: MTC value for microorganism no. 11 [5] | Toxic fingerprint: MTC value for microorganism no. 2 [6] | Toxic fingerprint: MTC value for microorganism no. 1 [7] | Toxic fingerprint: MTC value for microorganism no. 9 (ObanF) | Toxic fingerprint: MTC value for microorganism no. 10 [8] | Toxic fingerprint: MTC value for microorganism no. 6 [9] | Toxic fingerprint: MTC value for microorganism no. 4 [10]
COc1ccc(CCN(C)CCCC(C#N)(c2ccc(OC)c(OC)c2)C(C)C)cc1OC (stereo not drawn) [Verapamil HCl] | 0.128 | 0.055 | 0.834 | 0.360 | 0.591 | 0.360 | 0.811 | 0.811 | 2.950 | 0.438 | 0.371 | 0.247 | 0.326 | 0.510 | 0.877 | 1.090 | 3.100
Kinidin sulphate | 0.113 and 0.104 | 0.062 | 1.009 |  |  | 0.087 | 0.148 | 0.150 and 0.145 | 0.138 and 0.275 | 0.092 | 0.088 and 0.085 | 0.053 and 0.076 | 0.108 and 0.102 | 0.254 and 0.329 | 0.091 and 0.072 | 0.099 and 0.141 | 0.243 and 0.233
Oc1c(Cl)c(Cl)c(Cl)c(Cl)c1Cl [Penta Chloro Phenol] |  | 0.001 | 0.010 | 0.005 and 0.006 | 0.007 and 0.004 | 0.001 | 0.005 | 0.004 and 0.005 | 0.005 and 0.007 | 0.001 | 0.001 | 0.001 | 0.006 and 0.004 | 0.004 and 0.003 |  | 0.003 and 0.006 | 0.009 and 0.010
O=S(=O)([O-])[O-].[Li+].[Li+] [Lithium Sulphate] | 12.200 and 12.700 | 0.033 | 67.764 | 41.800 and 25.400 | 14.500 and 10.000 | 3.11 | 11.330 | 9.960 and 12.700 |  | 25.763 | 22.400 and 15.300 | 6.300 and 7.170 | 3.700 and 4.780 | 23.400 and 17.500 | 2.650 and 3.570 | 10.600 and 8.490 | 4.590 and 7.950
